This passage reports Kd results from PMC3466060 (2011).

Each structure is given as a SMILES string.

The experiment relates to 3′-Fl-AM1A-(18)-Rhd (RNA, riboswitch) GAGGGUGGAACCGCGCUUCGGCGUCCCUC
In words: FRET binding titration. The conditions noted are these: 50 mM NaCl, 5 mM MgCl2.

One may read the Kd as the equilibrium constant for the complex coming apart.

As for `O=C(Cc1ccccc1)OCC1OC(=O)NC1CN1CCN(c2ccccc2)CC1` (racemic), the Kd is more than 100 µM.
